# Source: patent US5217960A, “Erythromycin derivatives” (priority 1991, dated 1993)
# Where two headings read alike, the source gives them in different places.
# Tests used:
# Assay type in all cases: cell-based
# [1] = tested on: STAPHYLOCOCCUS AUREUS ATCC 6538P; test: In vitro antibacterial activity, agar dilution MIC; conditions: ATCC6538P, 24 h
# [2] = tested on: STAPHYLOCOCCUS AUREUS A5177; test: In vitro antibacterial activity, agar dilution MIC
# [3] = tested on: STAPHYLOCOCCUS AUREUS 45; test: In vitro antibacterial activity, agar dilution MIC
# [4] = tested on: STAPHYLOCOCCUS AUREUS 642A; test: In vitro antibacterial activity, agar dilution MIC; conditions: 24 h
# [5] = tested on: STAPHYLOCOCCUS AUREUS NCTC 10649; test: In vitro antibacterial activity, agar dilution MIC
# [6] = tested on: STAPHYLOCOCCUS AUREUS CMX 553; test: In vitro antibacterial activity, agar dilution MIC
# [7] = tested on: STAPHYLOCOCCUS AUREUS 1775; test: In vitro antibacterial activity, agar dilution MIC
# [8] = tested on: STAPHYLOCOCCUS EPIDERMIDIS 3519; test: microbe, parasite or virus in culture
# [9] = tested on: EN[…] ATCC 8043; test: In vitro antibacterial activity, agar dilution MIC; conditions: Enterococcus faecium, ATCC8043, 24 h
# Method: (§1) Representative compounds of the present invention were assayed in vitro for antibacterial activity as follows: Twelve petri dishes containing successive aqueous dilutions of the test compound mixed with 10 ml of sterilized Brain Heart Infusion (BHI) agar (Difco 0418-01-5) were prepared. Each plate was inoculated with 1:100 (or 1:10 for slow-growing strains, such as Micrococcus and Streptococcus) dilutions of up to 32 different microorganisms, using a Steers replicator block. The inoculated plates were incubated at 35°-37° C. for 20 to 24 hours. In addition, a control plate, using BHI agar containing no test compound, was prepared and incubated at the beginning and end of each test.
# (§2) An additional plate containing a compound having known susceptibility patterns for the organisms being tested and belonging to the same antibiotic class as the test compound was also prepared and incubated as a further control, as well as to provide test-to-test comparability. Erythromycin A was used for this purpose.
# (§3) After incubation, each disk was read. The minimum inhibitory concentration (MIC) was defined as the lowest concentration of drug yielding no growth, a slight haze, or sparsely isolated colonies on the inoculum spot as compared to the growth control. The results of this assay, shown below in Tables 1 and 2, support the conclusion that the compounds of the invention are effective antibacterial agents.
# [10] = tested on: M[…] ATCC 4698; test: In vitro antibacterial activity, agar dilution MIC; conditions: Micrococcus luteus, ATCC4698, 24 h
# Method: as §1, §2, §3
# [11] = tested on: M[…] ATCC 9341; test: In vitro antibacterial activity, agar dilution MIC; conditions: Micrococcus luteus, ATCC9341, 24 h
# Method: as §1, §2, §3
# [12] = tested on: PSEUDOMONAS AERUGINOSA K799/61; test: In vitro antibacterial activity, agar dilution MIC
# Method: as §1, §2, §3
# [13] = tested on: STREPTOCOCCUS BOVIS A5169; test: In vitro antibacterial activity, agar dilution MIC
# [14] = tested on: STR[…] 508; test: In vitro antibacterial activity, agar dilution MIC; conditions: Streptococcus agalactiae, 24 h
# Method: as §1, §2
# (§4) After incubation, each disk was read. The minimum inhibitory concentration (MIC) was defined as the lowest concentration of drug yielding no growth, a slight haze, or sparsely isolated colonies on the inoculum spot as compared to the growth control.
# [15] = tested on: STR[…] EES61; test: In vitro antibacterial activity, agar dilution MIC; conditions: Streptococcus pyogenes, 24 h
# Method: as §1, §2, §4
# [16] = tested on: STREPTOCOCCUS PYOGENES 930 CONST; test: In vitro antibacterial activity, agar dilution MIC
# [17] = tested on: STREPTOCOCCUS PYOGENES 2548 INDUC; test: In vitro antibacterial activity, agar dilution MIC
# [18] = tested on: ESCHERICHIA COLI JUHL; test: microbe, parasite or virus in culture
# [19] = tested on: ESCHERICHIA COLI SS; test: In vitro antibacterial activity, agar dilution MIC
# [20] = tested on: ESCHERICHIA COLI DC-2; test: In vitro antibacterial activity, agar dilution MIC; conditions: E. coli DC-2, BHI agar, 35-37° C., 20 to 24 hours, read-out: MIC
# [21] = tested on: ESCHERICHIA COLI H560; test: In vitro antibacterial activity, agar dilution MIC
# [22] = tested on: ESCHERICHIA COLI KNK 437; test: microbe, parasite or virus in culture
# [23] = tested on: ENTEROBACTER AEROGENES ATCC 13048; test: In vitro antibacterial activity, agar dilution MIC; conditions: Klebsiella aerogenes, ATCC13048; E. aerogenes ATCC 13048; BHI agar, 35-37° C., 20 to 24 hours; read-out: MIC
# [24] = tested on: KLEBSIELLA PNEUMONIAE ATCC 8045; test: In vitro antibacterial activity, agar dilution MIC; conditions: ATCC8045, K. pneumoniae ATCC 8045, BHI agar, 35-37° C., 20 to 24 hours, read-out: MIC
# [25] = tested on: PROVIDENCIA STUARTII CMX 640; test: microbe, parasite or virus in culture; conditions: P. stuartii CMX 640, BHI agar, 35-37° C., 20 to 24 hours
# [26] = tested on: PSEUDOMONAS AERUGINOSA BMH10; test: In vitro antibacterial activity, agar dilution MIC; conditions: P. aeruginosa BMH10, BHI agar, 35-37° C., 20 to 24 hours, read-out: MIC
# [27] = tested on: PSEUDOMONAS AERUGINOSA A5007; test: In vitro antibacterial activity, agar dilution MIC; conditions: P. aeruginosa A5007, BHI agar, 35-37° C., 20 to 24 hours
# [28] = tested on: PSEUDOMONAS AERUGINOSA K799/WT; test: In vitro antibacterial activity, agar dilution MIC; conditions: P. aeruginosa K799/WT, BHI agar, 35-37° C., 20 to 24 hours
# [29] = tested on: PSEUDOMONAS CEPACIA 296I; test: In vitro antibacterial activity, agar dilution MIC; conditions: Burkholderia cepacia
# [30] = tested on: ACINETOBACTER CALCOACETICUS CMX 669; test: In vitro antibacterial activity, agar dilution MIC; conditions: A. calcoaceticus CMX 669, BHI agar, 35-37° C., 20 to 24 hours
# [31] = S. aureus A5177, BHI agar, 35-37° C., 20 to 24 hours, read-out: MIC
# [32] = S. aureus 1775, BHI agar, 35-37° C., 20 to 24 hours, read-out: MIC
# [33] = S. epidermidis 3519, BHI agar, 35-37° C., 20 to 24 hours, read-out: MIC
# [34] = S. bovis A5169, BHI agar, 35-37° C., 20 to 24 hours, read-out: MIC
# [35] = S. pyogenes 2548 INDUC, BHI agar, 35-37° C., 20 to 24 hours, read-out: MIC
# [36] = E. coli JUHL, BHI agar, 35-37° C., 20 to 24 hours, read-out: MIC
# [37] = E. coli SS, BHI agar, 35-37° C., 20 to 24 hours, read-out: MIC
# [38] = E. coli H560, BHI agar, 35-37° C., 20 to 24 hours, read-out: MIC
# [39] = E. coli KNK 437, BHI agar, 35-37° C., 20 to 24 hours
# [40] = P. cepacia 296I, BHI agar, 35-37° C., 20 to 24 hours, read-out: MIC
# [41] = P. aeruginosa K799/61, BHI agar, 35-37° C., 20 to 24 hours, read-out: MIC
# [42] = S. pyogenes 930 CONST, BHI agar, 35-37° C., 20 to 24 hours, read-out: MIC
Structure (SMILES),MIC [1] [µg/mL],"MIC [2, 31] [µg/mL]",MIC [4] [µg/mL],"MIC [7, 32] [µg/mL]",MIC [9] [µg/mL],MIC [10] [µg/mL],MIC [11] [µg/mL],MIC [14] [µg/mL],MIC [15] [µg/mL],"MIC [17, 35] [µg/mL]","MIC [18, 36] [µg/mL]",MIC [20] [µg/mL],"MIC [21, 38] [µg/mL]",MIC [23] [µg/mL],MIC [24] [µg/mL],MIC [25] [µg/mL],MIC [26] [µg/mL],MIC [27] [µg/mL],MIC [28] [µg/mL],MIC [30] [µg/mL],further results
"CC[C@H]1OC(=O)[C@H](C)[C@@H](O[C@H]2C[C@@](C)(OC)[C@@H](O)[C@H](C)O2)[C@H](C)[C@@H](O[C@@H]2O[C@H](C)C[C@H](N(C)C)[C@H]2O)[C@](C)(O)C[C@@H](C)[C@@H](N)[C@H](C)[C@@H](O)[C@@]1(O)CN [Compound 15, (9R)-9,21-diamino-9-deoxo-erythromycin A]",25,> 100,12.5,100,12.5,12.5,50,12.5,25,> 100,100,3.1,> 100,> 100,> 100,> 100,> 100,> 100,> 100,> 100,"MIC ([3]; S. aureus 45, BHI agar, 35-37° C., 20 to 24 hours, read-out: MIC): 100 µg/mL; MIC ([5]; NCTC10649, S. aureus NCTC 10649, BHI agar, 35-37° C., 20 to 24 hours, read-out: MIC): 100 µg/mL; MIC ([6]; S. aureus CMX 553, BHI agar, 35-37° C., 20 to 24 hours, read-out: MIC): 100 µg/mL; MIC [8, 33]: > 100 µg/mL; MIC ([12]; 24 h): > 100 µg/mL; MIC [13, 34]: 100 µg/mL; MIC ([16]; 24 h): 12.5 µg/mL; MIC [19, 37]: > 100 µg/mL; MIC [22, 39]: 100 µg/mL; MIC [29, 40]: 100 µg/mL"
"CC[C@H]1OC(=O)[C@H](C)[C@@H](O[C@H]2C[C@@](C)(OC)[C@@H](O)[C@H](C)O2)[C@H](C)[C@@H](O[C@@H]2O[C@H](C)C[C@H](N(C)C)[C@H]2O)[C@](C)(O)C[C@@H](C)[C@@H](N(C)C)[C@H](C)[C@@H](O)[C@H]1CO [Compound 11, (9R)-9-deoxo-9-(N,N-dimethylamino)-21-hydroxyerythromycin B]",6.2,100,6.2,> 100,1.56,0.78,0.78,0.78,0.39,–,> 100,> 100,–,> 100,> 100,> 100,> 100,> 100,> 100,> 100,"MIC ([3]; 24 h): 6.2 µg/mL; MIC ([5]; NCTC10649, 24 h): 6.2 µg/mL; MIC ([6]; 24 h): 6.2 µg/mL; MIC ([8]; 24 h): 6.2 µg/mL; MIC [12, 41]: 12.5 µg/mL; MIC ([13]; 24 h): 0.78 µg/mL; MIC [16, 42]: > 100 µg/mL; MIC ([17]; 24 h): 50 µg/mL; MIC ([19]; 24 h): 0.39 µg/mL; MIC ([21]; 24 h): 50 µg/mL; MIC [22, 39]: > 100 µg/mL; MIC [29, 40]: > 100 µg/mL"
"CC[C@H]1OC(=O)[C@H](C)[C@@H](O[C@H]2C[C@@](C)(OC)[C@@H](O)[C@H](C)O2)[C@H](C)[C@@H](O[C@@H]2O[C@H](C)C[C@H](N(C)C)[C@H]2O)[C@](C)(O)C[C@@H](C)[C@@H](N(C)C)[C@H](C)[C@@H](O)[C@@]1(O)CO [Compound 10, (9R)-9-deoxo-9-(N,N-dimethylamino)-21-hydroxyerythromycin A]",25,–,25,> 100,12.5,3.1,6.2,3.1,1.56,100,> 100,> 100,100,> 100,> 100,> 100,> 100,> 100,> 100,> 100,"MIC ([2]; 24 h): > 100 µg/mL; MIC ([3]; 24 h): 25 µg/mL; MIC ([5]; NCTC10649, 24 h): 12.5 µg/mL; MIC ([6]; 24 h): 25 µg/mL; MIC ([8]; 24 h): 25 µg/mL; MIC [12, 41]: 50 µg/mL; MIC ([13]; 24 h): 3.1 µg/mL; MIC [16, 42]: > 100 µg/mL; MIC ([19]; 24 h): 1.56 µg/mL; MIC [22, 39]: > 100 µg/mL; MIC [29, 40]: > 100 µg/mL"
"CC[C@H]1OC(=O)[C@H](C)[C@@H](O[C@H]2C[C@@](C)(OC)[C@@H](O)[C@H](C)O2)[C@H](C)[C@@H](O[C@@H]2O[C@H](C)C[C@H](N(C)C)[C@H]2O)[C@](C)(O)C[C@@H](C)[C@@H](N(C)C)[C@H](C)[C@@H](O)[C@@]1(O)CN(C)Cc1ccccc1 [Compound 16, (9R)-21-(N-benzyl-N-methylamino)-9-deoxo-9-(N,N-dimethylamino)-erythromycinA]",12.5,> 100,3.1,–,3.1,0.39,6.2,0.1,0.39,50,–,1.56,100,100,> 100,100,> 100,100,> 100,> 100,"MIC ([3]; 24 h): 6.2 µg/mL; MIC ([5]; NCTC10649, 24 h): 12.5 µg/mL; MIC ([6]; 24 h): 12.5 µg/mL; MIC ([7]; 24 h): 12.5 µg/mL; MIC [8, 33]: > 100 µg/mL; MIC ([12]; 24 h): > 100 µg/mL; MIC [13, 34]: 1.56 µg/mL; MIC ([16]; 24 h): 0.78 µg/mL; MIC ([18]; 24 h): 12.5 µg/mL; MIC [19, 37]: 100 µg/mL; MIC ([22]; 24 h): 50 µg/mL; MIC ([29]; 24 h): 12.5 µg/mL"
